How the values were obtained:
EAHY926 cells [1] = assay: Cell development index assay (Angiogenesis Analyzer for ImageJ); format: cell-based, human; settings: EAHY926, 7.8 μM, 24th hour; for numbers of endothelial junctions (rank of effects): FIG. 7A; for numbers of endothelial meshes (rank of effects): FIG. 7B; for total branching lengths (rank of effects): FIG. 7C
Procedure: (§1) In the present disclosure, the cell line for the cell experiment is EAHY926 (human vascular endothelial cell line), and the mouse strain for the animal experiment is BALB/c Nude mouse.
EAHY926 cells were seeded in cell culture plates at 37° C. […] Microscopic images were taken within the first hour and the 24th hour after the addition of nitric oxide releasing agents, and the images were analyzed by “Angiogenesis Analyzer for ImageJ” software for analyzing cell development index. The analyzed cell development parameters include cell meshes, cell junctions and cell branches.
Please refer to FIGS. 5A to 5H and FIGS. 6A to 6H. In the analysis of cell development, the gray lines were represented as cell branches of the cell-cell junction, and the more lines mean more growth of the cells. In addition, when the cells were more developed because they had more cell branches, the cells were represented by white lines. As the degree of cell development increased, cell junctions (dark gray dots) became more. Further, the cells enclosed multiple circles (black lines) which were called cell meshes.

[2] = tested on: zebrafish with fluorescence gene Tg (fli1: EGFP) y1; assay: In vivo angiogenesis assay in zebrafish; settings: 7.8 μM
Procedure: In this experiment, zebrafish with fluorescence gene Tg (fli1: EGFP) y1 were used for in vivo angiogenesis analysis. The zebrafish nutrient solutions were respectively added with the respective various nitric oxide releasing agents at 7.8 μM concentration. The zebrafish were incubated with nitric oxide releasing agents for 24 to 48 hours. The confocal microscopy images were taken at the beginning, the 24th hour, and the 48th hour after incubation, and semi-quantitative analysis of neovascularization in zebrafish oocysts was performed.
FIGS. 14A to 14E show images taken within the first hour after addition of the nitric oxide releasing agents. FIGS. 15A to 15E are images taken within the 24th hour after addition of the nitric oxide releasing agents. FIGS. 16A to 16E are images taken within the 48th hour after addition of nitric oxide releasing agents. Neovascularization in the zebrafish oocyst area is indicated by the white arrows.

EAHY926 cells [3] = assay: Cell viability (MTT) of the cell cultures of the wound healing test; format: cell-based, human; settings: EAHY926, 7.8 μM, FIG. 11
From the text: (§2) In this experiment, 3-(4,5-cimethylthiazol-2-yl)-2,5-diphenyl tetrazolium bromide (also called MTT) was used for testing cell viability. MTT is a yellow compound and a dye that accepts hydrogen ions and acts on the respiratory chain of living cell mitochondria. Under the action of succinate dehydrogenase (SDH) and cytochrome C, the tetrazolium ring of MTT will be cracked to generate blue color crystals. The formation of crystals is proportional to the number of living cells (in dead cells, because there is no active succinate dehydrogenase, MTT cannot be reduced). The O.D value can indirectly represent cell viability because of the MTT reduction ability of living cells.
In the present experimental example, then the cell viability was assayed by adding MTT reagent to the various cell cultures of wound healing test. The results are shown in FIG. 11, among all of the groups, the group treated with RRE-1 had the highest cell viability. The result corresponds to the result of FIG. 4. In FIG. 11, the effects of cell viability were ranked as RRE-1>DPTA>MAHMA. The trend is similar to the result of FIG. 10.

VEGFR-2 = assay: Western blot assay, VEGFR-2 expression; format: cell-based, human; settings: EAHY926, 7.8 μM, 24 hours, FIG. 12
Procedure: (§3) In the literature, nitric oxide releasing agents have the potential for promoting angiogenesis and wound healing in vivo, and are also clinically useful agents that can effectively promote the expression of vascular endothelial growth factor receptor 2 (VEGFR2). Therefore, this experiment intended to test the effect of the respective various nitric oxide releasing agents on the expression of angiogenesis-related proteins (e.g., TIE-2, and VEGFR-2).
(§4) EAHY926 cells were seeded in cell culture dishes at 37° C. […] After 24 hours incubation, the cultures were washed with PBS three times and added 250 microliters (μL) of cell lysis buffer, then the cells were scraped and the proteins of the cells were extracted for Western blot experiment.

TIE-2 = assay: Western blot assay, TIE-2 expression; format: cell-based, human; settings: EAHY926, 7.8 μM, 24 hours, FIG. 12
Procedure: as §3, §4

[4] = tested on: Immunodeficient nude mice; assay: In vivo angiogenesis assay (DIVAA) in mice; set-up: species or system mouse; settings: soft tubes implanted in the back, 7.8 μM, twenty days, FIG. 13
From the text: as §1
Immunodeficient nude mice (6 in each group) were fixed on the operating table and anesthetized (1-3% isoflurane/100% oxygen, flow rate 1 L/min). After the mice were fixed, two 1 cm incisions were respectfully cut on the left and right back of the mice with a surgical knife. Soft tubes containing mixtures of cell nutrient agents and 7.8 μM of respective nitric oxide releasing agents were prepared. These soft tubes were implanted into the back of the mice, then the wounds were washed with normal saline and were stitched. After 20 days, the soft tubes were removed and the hemoglobins within the soft tubes were released. The total amounts of hemoglobin were analyzed by ELISA analyzer for obtaining the correlation parameters of angiogenesis.
The control group was the conditioned of the soft tube without nitric oxide releasing agents.

EAHY926 cells [5] = assay: Cell viability assay (MTT); format: cell-based, human; settings: EAHY926, 24 hours, 37° C., at various concentrations, FIG. 4
From the text: as §1, §2

EAHY926 cells [6] = assay: Wound healing assay (in vitro scratch); format: cell-based, human; settings: EAHY926, 7.8 μM, 1 mm wide line, 24th hour, FIGS. 9A-9I
Procedure: as §1
EAHY926 cells were seeded in cell culture plates at 37° C. […] A 1 millimeter (mm) wide line was scraped off in a culture plate, and images of the culture were taken within the first hour and the 24th hour to record and quantify the percentage of wound healing.

chicken embryos = assay: Chicken chorioallantoic membrane assay (CAM); format: in vivo; settings: 7.8 μM injected into eggs after 6 days incubation, 2 days of culture, FIG. 20
Procedure: In this experimental example, the insemination eggs were placed on the egg rack and the eggs' gas chamber were placed upwards in the hatching incubator. After incubation for 6 days, the eggs were screened with an egg detector, and the insemination eggs with hatching embryos were selected. Then, small holes were respectively drilled on the air chamber end (blunt end) and a side of the selected eggs, and 7.8 μM of the respective various nitric oxide releasing agents were injected through the small holes at the blunt end, sterilized filter films were covered on the hole of the air chamber, and then ventilation tapes were put on. The eggs were continuously incubated in the incubator. After 2 days of culture, the eggs were poked and placed in Petri dishes to observe and recorded by a camera.
The condition of the control group was the eggs with no addition of nitric oxide releasing agents.

Compound | numbers of endothelial junctions (rank of effects) (EAHY926 cells [1]) | numbers of endothelial meshes (rank of effects) (EAHY926 cells [1]) | total branching lengths (rank of effects) (EAHY926 cells [1]) | angiogenesis (neovascularization in zebrafish oocyst area) ([2]; 24 hours, FIG. 17) | cell viability (MTT) after wound healing test (EAHY926 cells [3]) | expression of protein VEGFR-2 (Western blot) (VEGFR-2) | expression of protein TIE-2 (Western blot) (TIE-2) | angiogenesis (neovascularization in zebrafish), overall statement ([2]; 24 to 48 hours) | angiogenesis inside the soft tubes (total amounts of hemoglobin) [4] | promotion of cell growth (cell viability, MTT) (EAHY926 cells [5]) | effect on wound healing (images) (EAHY926 cells [6]) | angiogenesis of chicken embryos (CAM) (chicken embryos)
CNCCCCCCN(C)/[N+]([O-])=N/O [MAHMA, (Z)-1-[N-Methyl-N-[6-(N-methylammoniohexyl)amino]]diazen-1-ium-1,2-diolate] | RRE-1>VEGF>Spermine>MAHA | RRE-1>VEGF>MAHMA>Spermine | RRE-1>Spermine>VEGF>MAHMA | most effective | RRE-1>DPTA>MAHMA | only induced a small amount | only induced a small amount | – | – | – | – | –
VEGF | RRE-1>VEGF>Spermine>MAHA | RRE-1>VEGF>MAHMA>Spermine | RRE-1>Spermine>VEGF>MAHMA | – | – | only induced a small amount | only induced a small amount | not effective as expected | followed by VEGF and Spermine | does not work better than other commercially available nitric oxide-releasing agents | more significant effects on wound healing | –
1-(hydroxy-NNO-azoxy)-L-proline, disodium salt | – | – | – | – | – | – | – | – | – | – | more significant effects on wound healing | –
NCCCNCCCCNCCCN [Spermine] | RRE-1>VEGF>Spermine>MAHA | RRE-1>VEGF>MAHMA>Spermine | RRE-1>Spermine>VEGF>MAHMA | – | – | only induced a small amount | only induced a small amount | – | followed by VEGF and Spermine | – | more significant effects on wound healing | similar
NCCCN(CCCN)/[N+]([O-])=N/O [DPTA, (Z)-1-[N-(3-aminopropyl)-N-(3-ammoniopropyl)amino]diazen-1-ium-1,2-diolate] | – | – | – | – | RRE-1>DPTA>MAHMA | – | – | – | – | – | more significant effects on wound healing | –
